{"source": "patent US9926332B2", "about": "“Dihydro-oxazinobenzodiazepine compounds, a process for their preparation and pharmaceutical compositions containing them” (priority 2014, dated 2018)", "key": {"[1]": {"biological_target": "T1, α1 subunit of the human GABAA receptor in association with the beta2 (short) and gamma2 (long) subunits (Homo sapiens, UniProt P14867+P18507+P47870)", "T1 construct": "expressed in transfected cells; host or cells: HEK-293", "T1 sequence (P14867 28-456)": "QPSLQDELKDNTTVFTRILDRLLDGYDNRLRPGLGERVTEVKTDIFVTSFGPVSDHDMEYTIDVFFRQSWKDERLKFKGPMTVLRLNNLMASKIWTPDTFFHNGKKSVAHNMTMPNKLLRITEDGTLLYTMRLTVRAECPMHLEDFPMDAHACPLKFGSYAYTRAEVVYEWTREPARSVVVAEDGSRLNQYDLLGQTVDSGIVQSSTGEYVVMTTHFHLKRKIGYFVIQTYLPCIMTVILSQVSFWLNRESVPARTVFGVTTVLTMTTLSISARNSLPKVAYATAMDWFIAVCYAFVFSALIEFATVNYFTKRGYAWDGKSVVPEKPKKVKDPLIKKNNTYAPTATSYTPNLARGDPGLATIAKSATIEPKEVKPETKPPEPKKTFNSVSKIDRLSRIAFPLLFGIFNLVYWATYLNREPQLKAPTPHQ", "T1 sequence (P47870 26-474 isoform P47870-1 partner limits assumed)": "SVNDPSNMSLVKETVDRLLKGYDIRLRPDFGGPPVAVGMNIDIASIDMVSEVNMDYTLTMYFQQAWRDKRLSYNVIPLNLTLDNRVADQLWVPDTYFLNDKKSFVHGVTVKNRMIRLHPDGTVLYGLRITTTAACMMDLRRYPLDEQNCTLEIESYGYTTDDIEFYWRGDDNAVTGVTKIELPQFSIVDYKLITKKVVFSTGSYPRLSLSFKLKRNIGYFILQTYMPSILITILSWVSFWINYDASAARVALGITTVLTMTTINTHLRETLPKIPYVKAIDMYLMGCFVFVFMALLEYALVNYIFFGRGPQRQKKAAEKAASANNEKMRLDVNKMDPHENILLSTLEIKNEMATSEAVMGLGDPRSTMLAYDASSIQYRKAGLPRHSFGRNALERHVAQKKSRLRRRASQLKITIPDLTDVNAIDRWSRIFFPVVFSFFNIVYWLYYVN", "T1 sequence (P18507 40-475 partner)": "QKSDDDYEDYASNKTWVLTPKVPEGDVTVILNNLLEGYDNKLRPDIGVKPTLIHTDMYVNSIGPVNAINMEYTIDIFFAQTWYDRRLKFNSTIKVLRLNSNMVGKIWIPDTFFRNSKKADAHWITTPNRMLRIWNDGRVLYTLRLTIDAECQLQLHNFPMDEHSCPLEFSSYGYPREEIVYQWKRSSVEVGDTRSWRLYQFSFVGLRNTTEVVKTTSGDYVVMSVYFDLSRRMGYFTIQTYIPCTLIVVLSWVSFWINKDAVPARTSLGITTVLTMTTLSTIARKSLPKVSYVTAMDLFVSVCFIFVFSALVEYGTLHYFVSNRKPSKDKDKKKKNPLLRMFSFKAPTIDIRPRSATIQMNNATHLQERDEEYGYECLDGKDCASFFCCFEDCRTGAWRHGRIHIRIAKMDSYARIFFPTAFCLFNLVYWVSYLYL", "assay": "GABA-induced membrane potential response (FMP dye, FlexStation3) in HEK-293 cells expressing GABAA α1", "type": "cell-based"}, "[2]": {"biological_target": "T2, α2 subunit of the human GABAA receptor in association with the beta2 (short) and gamma2 (long) subunits (Homo sapiens, UniProt P18507+P47869+P47870)", "T2 construct": "expressed in transfected cells; host or cells: HEK-293", "T2 sequence (P47869 29-451)": "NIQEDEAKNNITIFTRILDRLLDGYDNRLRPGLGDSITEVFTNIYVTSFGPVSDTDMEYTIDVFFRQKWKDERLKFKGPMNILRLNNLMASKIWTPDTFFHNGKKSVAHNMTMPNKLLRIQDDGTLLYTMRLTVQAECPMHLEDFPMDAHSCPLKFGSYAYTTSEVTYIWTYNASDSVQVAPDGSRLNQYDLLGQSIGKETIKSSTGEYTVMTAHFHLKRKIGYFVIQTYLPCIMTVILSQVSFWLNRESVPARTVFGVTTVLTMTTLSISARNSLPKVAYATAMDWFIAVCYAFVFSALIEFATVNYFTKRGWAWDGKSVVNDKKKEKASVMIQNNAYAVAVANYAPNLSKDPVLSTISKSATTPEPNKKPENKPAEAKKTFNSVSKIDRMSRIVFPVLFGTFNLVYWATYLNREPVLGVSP", "T2 sequence (P47870 26-474 isoform P47870-1 partner limits assumed)": "as the sequence (P47870 26-474 isoform P47870-1 partner limits assumed) above", "T2 sequence (P18507 40-475 partner)": "as the sequence (P18507 40-475 partner) above", "assay": "GABA-induced membrane potential response (FMP dye, FlexStation3) in HEK-293 cells expressing GABAA α2", "type": "cell-based", "method": "(§1) The compounds are tested on HEK-293 (Human Embryonic Kidney) cells stably expressing the […] or the α5 subunit of the human GABAA receptor in association with the beta2 (short) and gamma2 (long) subunits, thus forming heteropentameric GABAA receptors. The cells are maintained in the presence of a selection of three antibiotics—neomycin, zeocin and puromycin—in a Dulbecco medium (DMEM) containing 10% (v/v) foetal bovine serum The membrane potential is monitored using the fluorescent blue FMP dye (Molecular Devices), following the instructions of the manufacturer. On the day before the experiment, the cells are transferred to 96-well plates (in a density of 50,000 cells/well). 18-24 h later the cells are washed and incubated with the compounds under test plus the FMP dye. Recording of the fluorescence signal in a FlexStation3 plate reader (Molecular Devices, USA) is started 40 min later. After 30 sec of monitoring baseline fluorescence GABA is added to evoke a fluorescent signal reporting depolarisation of the membrane potential across the plasma membrane. The GABA induced responses are recorded for 90 seconds. Data are calculated by subtracting the average baseline value and computing the area under the curve of the fluorescence signal induced by GABA. The IC50 values for α5 and the EC50 values for α2 of the tested compounds are determined from log concentration versus response curves obtained by non-linear regression using SoftMax Pro software (Molecular Devices, USA)."}, "[3]": {"biological_target": "T3, α5 subunit of the human GABAA receptor in association with the beta2 (short) and gamma2 (long) subunits (Homo sapiens, UniProt P18507+P31644+P47870)", "T3 construct": "expressed in transfected cells; host or cells: HEK-293", "T3 sequence (P31644 32-462)": "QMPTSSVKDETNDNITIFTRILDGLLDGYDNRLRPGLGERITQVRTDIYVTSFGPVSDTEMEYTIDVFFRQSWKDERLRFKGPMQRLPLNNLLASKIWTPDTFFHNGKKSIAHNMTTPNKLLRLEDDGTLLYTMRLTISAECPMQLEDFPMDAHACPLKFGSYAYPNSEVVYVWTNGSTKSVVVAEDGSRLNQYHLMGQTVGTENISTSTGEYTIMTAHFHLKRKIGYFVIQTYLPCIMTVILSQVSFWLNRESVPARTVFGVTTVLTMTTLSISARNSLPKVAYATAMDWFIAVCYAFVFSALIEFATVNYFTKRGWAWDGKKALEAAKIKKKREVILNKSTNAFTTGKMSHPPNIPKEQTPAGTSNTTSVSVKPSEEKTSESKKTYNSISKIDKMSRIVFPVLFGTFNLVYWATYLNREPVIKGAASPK", "T3 sequence (P47870 26-474 isoform P47870-1 partner limits assumed)": "as the sequence (P47870 26-474 isoform P47870-1 partner limits assumed) above", "T3 sequence (P18507 40-475 partner)": "as the sequence (P18507 40-475 partner) above", "assay": "GABA-induced membrane potential response (FMP dye, FlexStation3) in HEK-293 cells expressing GABAA α5", "type": "cell-based", "method": "as §1"}, "mice [4]": {"test_system": "mice", "assay": "Novel object recognition test in mice", "type": "in vivo", "settings": "i.p. administration, FIG. 1 and FIG. 2", "excerpt": "FIG. 1 and FIG. 2. […] Mean values±S.E.M. (n=8-11/group); Dunnett test following ANOVA (*:p<0.05, **:p<0.01, ***:p<0.001). Discrimination index: Duration of new object exploration (s)−Duration of familiar object exploration (s)/Duration of new object exploration (s)+Duration of familiar object exploration (s).\nThe novel object recognition test evaluates the ability of mice to detect novelty in an otherwise familiar environment. Subsequent a short exploratory period, mice are unable to discriminate between the familiar and the new object 24 hours later. […] Enhancement of the discrimination index is considered as a procognitive effect. The results are illustrated in FIG. 1 and FIG. 2."}, "rats": {"test_system": "rats", "assay": "Social interaction test in rats", "type": "in vivo", "settings": "i.p. administration, FIG. 6", "excerpt": "FIG. 6. […] Mean values±S.E.M. (n=12/group) Kruskal-Wallis ANOVA followed by Mann-Whitney U test: control vs. compound-treated groups (**:p<0.05).\nThe social interaction test is a model used to measure anxiolytic or anxiogenic behaviour in rodents. When a pair of unfamiliar rats is placed together in the open field the animals show specific social behaviours (sniffing, following, grooming, crawling over and under other rats). Anxiolytic compounds such as benzodiazepines increase in the time spent with social interactions. In our experiment rats were submitted to the social interaction test of anxiety 30 min after drug treatment. The social interaction test consisted of 10 min of social encounters between two animals that received the same pharmacological treatment. The results are illustrated in FIG. 6."}, "mice [5]": {"test_system": "mice", "assay": "Prepulse inhibition test in mice, PCP-induced PPI disruption", "type": "in vivo", "settings": "i.p. administration, FIG. 4", "excerpt": "FIG. 4. […] Mean values±S.E.M. (n=10-12/group) Student's t-test: vehicle vs. PCP-treated group (***p<0.001) Dunnett's test following ANOVA: PCP-treated vs. PCP+compound treated groups (#:p<0.05).\nThe startle reaction of a healthy rodents and humans to a strong acoustic stimulus is reduced by the prior presentation of a weak stimulus. The effect of the weak stimulus on the startle response has been termed prepulse inhibition (PPI). Reduced prepulse inhibition is a hallmark feature of attention-processing (sensorimotor gating) deficits in patients with schizophrenia and other psychotic disorders. Acute administration of phencyclidine (PCP), an antagonist of N-methyl D-aspartate (NMDA)-type glutamate receptors, disrupts PPI in rodents and this effect can be prevented by clinically effective antipsychotics. The results are illustrated in FIG. 4."}, "mice [6]": {"test_system": "mice", "assay": "Light-dark test in mice", "type": "in vivo", "settings": "i.p. administration, FIG. 5", "method": "FIG. 5. […] Mean values±S.E.M. (n=11-20/group) Student's t-test: vehicle vs. Diazepam-treated group (*p<0.05) Dunnett test following ANOVA: vehicle-treated vs. compound-treated groups (#:p<0.05).\nThe light-dark apparatus contains a light (brightly illuminated) and a dark compartment. A small opening connects the two parts. During the 5 minutes test mice were placed individually in the light compartment and allowed to explore the entire apparatus. The activity of animals was measured automatically by interruptions of horizontal and vertical infrared beams. An increase of time spent in the light area (increase in light horizontal time) is interpreted as an anxiolytic effect. The results are illustrated in FIG. 5."}, "[7]": {"settings": "HEK 293 cells expressing GABAA α1, expressed as % of GABA EC50, read-out: α1 IC50"}, "[8]": {"settings": "HEK 293 cells expressing GABAA α5, expressed as % of GABA EC50, read-out: α5 IC50"}}, "note": "Read-outs that look alike come from different tables or passages of the source."}
{"smiles": "CCc1ccc2oc(C3=NN=C(C)Cc4cc5c(cc43)OC(C)C(=O)N5)c(CC)c2c1", "note": "(centres unmarked) [Example 13, 6-(3,5-Diethyl-1-benzofuran-2-yl)-3,9-dimethyl-1,10-dihydro[1,4]oxazino[3,2-h][2,3]benzodiazepin-2(3H)-one]", "values": [{"measurement": "IC50", "setting": "[1]", "value": "> 10000", "unit": "nM"}, {"measurement": "EC50", "setting": "[2]", "value": 1100, "unit": "nM"}, {"measurement": "IC50", "setting": "[3]", "value": 1300, "unit": "nM"}]}
{"smiles": "CC1=NN=C(c2sc3cccc(F)c3c2C)c2cc3c(cc2C1)NC(=O)C(C)O3", "note": "(centres unmarked) [Example 1, 6-(4-fluoro-3-methyl-1-benzothiophen-2-yl)-3,9-dimethyl-1,10-dihydro[1,4]oxazino[3,2-h][2,3]benzodiazepin-2(3H)-one]", "values": [{"measurement": "IC50", "setting": "[1]", "value": "> 10000", "unit": "nM"}, {"measurement": "EC50", "setting": "[2]", "value": 3500, "unit": "nM"}, {"measurement": "IC50", "setting": "[3]", "value": 700, "unit": "nM"}]}
{"smiles": "COc1ccc2oc(C3=NN=C(C)Cc4cc5c(cc43)OC(C)C(=O)N5)c(C)c2c1", "note": "(single isomer, unassigned; (+)) [Example 4, (+)-6-(5-Methoxy-3-methyl-1-benzofuran-2-yl)-3,9-dimethyl-1,10-dihydro[1,4]oxazino[3,2-h][2,3]benzodiazepin-2(3H)-one]", "values": [{"measurement": "Procognitive effect (discrimination index) in the object recognition model", "setting": "mice [4]", "value": "Procognitive effects"}, {"measurement": "Anxiolytic activity in the social interaction model", "setting": "rats", "value": "Anxiolytic activity"}]}
{"smiles": "CC1=NN=C(c2sc3cc(Cl)c(F)cc3c2C)c2cc3c(cc2C1)NC(=O)C(C)O3", "note": "(centres unmarked) [Example 8, 6-(6-Chloro-5-fluoro-3-methyl-1-benzothiophen-2-yl)-3,9-dimethyl-1,10-dihydro[1,4]oxazino[3,2-h][2,3]benzodiazepin-2(3H)-one]", "values": [{"measurement": "IC50", "setting": "[1]", "value": "> 10000", "unit": "nM"}, {"measurement": "EC50", "setting": "[2]", "value": 1000, "unit": "nM"}, {"measurement": "IC50", "setting": "[3]", "value": 3000, "unit": "nM"}]}
{"smiles": "CC1=NN=C(c2sc3cc(Cl)ccc3c2C)c2cc3c(cc2C1)NC(=O)C(C)O3", "note": "(racemic) [Example 5, 6-(6-Chloro-3-methyl-1-benzothiophen-2-yl)-3,9-dimethyl-1,10-dihydro[1,4]oxazino[3,2-h][2,3]benzodiazepin-2(3H)-one]", "values": [{"measurement": "IC50", "setting": "[1]; [7]", "value": "> 10000", "unit": "nM"}, {"measurement": "EC50", "setting": "[2]", "value": 1200, "unit": "nM"}, {"measurement": "IC50", "setting": "[3]; [8]", "value": 900, "unit": "nM"}]}
{"smiles": "CC1=NN=C(c2oc3ccc(Cl)cc3c2C)c2cc3c(cc2C1)NC(=O)C(C)O3", "note": "(centres unmarked) [Example 12, 6-(5-Chloro-3-methyl-1-benzofuran-2-yl)-3,9-dimethyl-1,10-dihydro[1,4]oxazino[3,2-h][2,3]benzodiazepin-2(3H)-one]", "values": [{"measurement": "IC50", "setting": "[1]", "value": "> 10000", "unit": "nM"}, {"measurement": "EC50", "setting": "[2]", "value": 1000, "unit": "nM"}, {"measurement": "IC50", "setting": "[3]", "value": 3000, "unit": "nM"}]}
{"smiles": "COc1ccc2oc(C3=NN=C(C)Cc4cc5c(cc43)OC(C)C(=O)N5)c(C)c2c1", "note": "(racemic) [Example 2, 6-(5-Methoxy-3-methyl-1-benzofuran-2-yl)-3,9-dimethyl-1,10-dihydro[1,4]oxazino[3,2-h][2,3]benzodiazepin-2(3H)-one]", "values": [{"measurement": "IC50", "setting": "[1]", "value": "> 10000", "unit": "nM"}, {"measurement": "EC50", "setting": "[2]", "value": 800, "unit": "nM"}, {"measurement": "IC50", "setting": "[3]", "value": 800, "unit": "nM"}]}
{"smiles": "CC1=NN=C(c2sc3ccc(Cl)cc3c2C)c2cc3c(cc2C1)NC(=O)C(C)O3", "note": "(single isomer, unassigned; (+)) [Example 25, (+)-6-(5-Chloro-3-methyl-1-benzothiophen-2-yl)-3,9-dimethyl-1,10-dihydro[1,4]oxazino[3,2-h][2,3]benzodiazepin-2(3H)-one]", "values": [{"measurement": "Effect in the PCP-induced PPI disruption model", "setting": "mice [5]", "value": "Ameliorating effect"}]}
{"smiles": "CCc1c(C2=NN=C(C)Cc3cc4c(cc32)OC(C)C(=O)N4)sc2ccc(Cl)cc12", "note": "(racemic) [Example 9, 6-(5-Chloro-3-ethyl-1-benzothiophen-2-yl)-3,9-dimethyl-1,10-dihydro[1,4]oxazino[3,2-h][2,3]benzodiazepin-2(3H)-one]", "values": [{"measurement": "IC50", "setting": "[1]; [7]", "value": "> 10000", "unit": "nM"}, {"measurement": "EC50", "setting": "[2]", "value": 1000, "unit": "nM"}, {"measurement": "IC50", "setting": "[3]; [8]", "value": 700, "unit": "nM"}]}
{"smiles": "CC1=NN=C(c2sc3ccc(Cl)cc3c2C)c2cc3c(cc2C1)NC(=O)C(C)O3", "note": "(single isomer, unassigned; (-)) [Example 26, (−)-6-(5-Chloro-3-methyl-1-benzothiophen-2-yl)-3,9-dimethyl-1,10-dihydro[1,4]oxazino[3,2-h][2,3]benzodiazepin-2(3H)-one]", "values": [{"measurement": "Anxiolytic activity in Light-dark test (activity in the light compartment)", "setting": "mice [6]", "value": "Anxiolytic activity"}]}
{"smiles": "CC1=NN=C(c2sc3ccc(Cl)cc3c2C)c2cc3c(cc2C1)NC(=O)C(C)O3", "note": "(centres unmarked) [Example 24, 6-(5-Chloro-3-methyl-1-benzothiophen-2-yl)-3,9-dimethyl-1,10-dihydro[1,4]oxazino[3,2-h][2,3]benzodiazepin-2(3H)-one]", "values": [{"measurement": "Procognitive effect (discrimination index) in the object recognition model", "setting": "mice [4]", "value": "Procognitive effects"}]}
{"smiles": "CC1=NN=C(c2oc3ccc(O)cc3c2C)c2cc3c(cc2C1)NC(=O)C(C)O3", "note": "(centres unmarked) [Example 14, 6-(5-Hydroxy-3-methyl-1-benzofuran-2-yl)-3,9-dimethyl-1,10-dihydro[1,4]oxazino[3,2-h][2,3]benzodiazepin-2(3H)-one]", "values": [{"measurement": "IC50", "setting": "[1]", "value": 13700, "unit": "nM"}, {"measurement": "EC50", "setting": "[2]", "value": 1000, "unit": "nM"}, {"measurement": "IC50", "setting": "[3]", "value": 430, "unit": "nM"}]}
